Measurements from PMC13198257, “An aerosolized dual-action autotaxin inhibitor-PPARγ agonist for the treatment of pulmonary fibrosis” (Cell Reports Medicine, 2026).

Tested on: lung gene expression
Assay: RNA sequencing of lung tissue (BLM/EL244 vs BLM)
Format: in vivo, mouse
Conditions: BLM/EL244 vs BLM, lung tissue
Procedure: RNA quality was assessed using an Agilent TapeStation 4150 with the High Sensitivity […] ScreenTape (Agilent), according to the manufacturer’s protocols. For library preparation, the QuantSeq 3’mRNA-Seq Library Prep Kit (Lexogen) was used according to manufacturer’s instructions. Briefly, 500 ng of RNA from each sample was used for first-strand synthesis, followed by RNA template removal, and second-strand synthesis initiated by random primers. In-line barcodes were introduced at this step, and this was followed by magnetic bead-based purification. The resulting libraries were amplified for 15 cycles and re-purified, with quantity and quality assessed on a Qubit 4 Fluorometer with the Invitrogen Qubit dsDNA HS Assay and an Agilent Tapestation 4150 with the High Sensitivity D1000 assay kit, respectively. The quantified libraries were pooled equimolarly; 50ng of total library mix was used for Adapter Conversion PCR Amplification using the Universal Library Conversion Kit (App-A), Version: V1.0 (MGI Tech Co., Ltd.), according to the manufacturer’s instructions.
The quantity and quality of the purified adapter conversion PCR (AC-PCR) product were evaluated on a Qubit 4 Fluorometer with the Invitrogen Qubit dsDNA HS Assay and on an Agilent Tapestation 4150 with the High Sensitivity D1000 assay kit, respectively. This was followed by DNA denaturation, Single-Strand Circularisation, Enzymatic Digestion, Enzymatic Digestion Product Cleanup and Quality Control steps on 1 pmol of AC-PCR product, according to the Universal Library Conversion Kit (App-A) User Manual (Version: A3).
Finally, 60 fmol of ssCirDNA were used for DNB preparation and sequencing on a DNBSEQ-G400 platform at the BSRC Alexander Fleming Genomics Facility, using a G400 App-A FCS SE100 High-throughput Sequencing Set (MGI Tech Co., Ltd.), according to the manufacturer’s instructions.
Alignment of the FASTQ files was performed against the mouse genome build mm10 using a custom Bash script.[143] Read counting on the 3′ UTRs and differential expression analysis were conducted using the metaseqR2 bioconductor package.[144] Genes corresponding to the following biotypes were excluded: polymorphic_pseudogene, processed_transcript, pseudogene, IG_V_pseudogene, misc_RNA, IG_C_gene, IG_J_gene, IG_D_gene, IG_LV_gene, TR_V_gene, TR_V_pseudogene, TEC, and processed_pseudogene. Gene counts were normalized with DESEQ[145] through metaseqR2. Genes with more than 10 counts in at least 50% of the samples were kept for further processing. For differential expression analysis, the PANDORA algorithm[146] was used to estimate a meta p-value integrating the results from the DESEQ, DESEQ2,[147] edgeR,[148] limma,[149] NBPSeq,[150] and NOISeq[151] algorithms. All additional parameters were set to default values.
Pathway enrichment analysis was performed for the Gene Ontology Biological process (BP) and Molecular Function (MF) terms through GeneCodis 4.[152] The volcano plots, scatterplots, Venn diagrams, and dot plots were generated using the ggplot2 Bioconductor package.

SMILES: O=C1NC(=O)C(Cc2ccc(OCCC3CCN(C(=O)OCc4cc(Cl)cc(Cl)c4)CC3)cc2)S1 (stereo not shown) [EL244, 3,5-dichlorobenzyl 4-(2-(4-((2,4-dioxothiazolidin-5-yl)methyl)phenoxy)ethyl)piperidine-1-carboxylate]
- 1810020O05Rik log2 nFC: 1.58
- 1810020O05Rik nFC: 3.00
- 2410004I01Rik log2 nFC: 1.80
- 2410004I01Rik nFC: 3.47
- 9130230L23Rik log2 nFC: 1.34
- 9130230L23Rik nFC: 2.53
- 9330159F19Rik log2 nFC: 1.78
- 9330159F19Rik nFC: 3.43
- 9530026P05Rik log2 nFC: 3.17
- 9530026P05Rik nFC: 9.00
- A3galt2 log2 nFC: 2.32
- A3galt2 nFC: 5.00
- Acaa1b log2 nFC: 1.43
- Acaa1b nFC: 2.69
- Acot1 log2 nFC: 1.08
- Acot1 nFC: 2.11
- Acoxl log2 nFC: 1.23
- Acoxl nFC: 2.35
- Actc1 log2 nFC: 1.28
- Actc1 nFC: 2.42
- Adam3 log2 nFC: 1.67
- Adam3 nFC: 3.18
- Alas2 log2 nFC: 1.58
- Alas2 nFC: 2.99
- Ankrd63 log2 nFC: 1.34
- Ankrd63 nFC: 2.54
- Aqp9 log2 nFC: 1.66
- Aqp9 nFC: 3.15
- Arhgap28 log2 nFC: 1.14
- Arhgap28 nFC: 2.21
- Arl4d log2 nFC: 1.15
- Arl4d nFC: 2.23
- Arrdc2 log2 nFC: 1.24
- Arrdc2 nFC: 2.36
- Asgr1 log2 nFC: 1.80
- Asgr1 nFC: 3.49
- Baiap3 log2 nFC: 1.24
- Baiap3 nFC: 2.36
- Bbof1 log2 nFC: 1.11
- Bbof1 nFC: 2.15
- Bex2 log2 nFC: 1.46
- Bex2 nFC: 2.76
- Bpifa1 log2 nFC: 1.12
- Bpifa1 nFC: 2.18
- C130080G10Rik log2 nFC: 3.58
- C130080G10Rik nFC: 12.00
- Car3 log2 nFC: 1.57
- Car3 nFC: 2.96
- Casq2 log2 nFC: 2.36
- Casq2 nFC: 5.15
- Cbs log2 nFC: 1.38
- Cbs nFC: 2.61
- Ccdc81 log2 nFC: 1.15
- Ccdc81 nFC: 2.23
- Cd300lg log2 nFC: 1.18
- Cd300lg nFC: 2.27
- Chia1 log2 nFC: 1.16
- Chia1 nFC: 2.24
- Chrdl1 log2 nFC: 1.39
- Chrdl1 nFC: 2.62
- Cidec log2 nFC: 1.57
- Cidec nFC: 2.96
- Ckm log2 nFC: 2.32
- Ckm nFC: 5.00
- Ckmt2 log2 nFC: 2.73
- Ckmt2 nFC: 6.63
- Colq log2 nFC: 1.81
- Colq nFC: 3.52
- Cox6a2 log2 nFC: 1.42
- Cox6a2 nFC: 2.68
- Crtc2 log2 nFC: 1.47
- Crtc2 nFC: 2.76
- Csf3r log2 nFC: 1.69
- Csf3r nFC: 3.22
- Csrp3 log2 nFC: 2.07
- Csrp3 nFC: 4.19
- Cst8 log2 nFC: 1.41
- Cst8 nFC: 2.66
- Cxcl5 log2 nFC: 1.80
- Cxcl5 nFC: 3.49
- Cxcr2 log2 nFC: 1.19
- Cxcr2 nFC: 2.28
- Cyp2a5 log2 nFC: 1.66
- Cyp2a5 nFC: 3.15
- Cyp4b1 log2 nFC: 1.18
- Cyp4b1 nFC: 2.26
- Cytl1 log2 nFC: 1.67
- Cytl1 nFC: 3.18
- D630024D03Rik log2 nFC: 1.60
- D630024D03Rik nFC: 3.03
- Dpysl5 log2 nFC: 1.90
- Dpysl5 nFC: 3.73
- Ear1 log2 nFC: 1.11
- Ear1 nFC: 2.16
- Eml5 log2 nFC: 1.41
- Eml5 nFC: 2.65
- Esm1 log2 nFC: 1.28
- Esm1 nFC: 2.43
- Fabp12 log2 nFC: 1.43
- Fabp12 nFC: 2.69
- Faim2 log2 nFC: 2.03
- Faim2 nFC: 4.10
- Fam71f2 log2 nFC: 1.96
- Fam71f2 nFC: 3.88
- Fosb log2 nFC: 2.38
- Fosb nFC: 5.20
- Ggt1 log2 nFC: 1.91
- Ggt1 nFC: 3.77
- Gm867 log2 nFC: 2.18
- Gm867 nFC: 4.53
- Gm4956 log2 nFC: 1.08
- Gm4956 nFC: 2.12
- Gm9780 log2 nFC: 2.06
- Gm9780 nFC: 4.18
- Gm14964 log2 nFC: 1.87
- Gm14964 nFC: 3.65
- Gm20186 log2 nFC: 1.31
- Gm20186 nFC: 2.48
- Gm42722 log2 nFC: 1.79
- Gm42722 nFC: 3.46
- Gm49353 log2 nFC: 2.21
- Gm49353 nFC: 4.62
- Gnmt log2 nFC: 1.14
- Gnmt nFC: 2.20
- Gpat3 log2 nFC: 1.34
- Gpat3 nFC: 2.54
- Gria1 log2 nFC: 1.61
- Gria1 nFC: 3.05
- Gsta3 log2 nFC: 1.10
- Gsta3 nFC: 2.15
- Gzma log2 nFC: 1.70
- Gzma nFC: 3.26
- Hba-a1 log2 nFC: 1.21
- Hba-a1 nFC: 2.32
- Hba-a2 log2 nFC: 1.14
- Hba-a2 nFC: 2.21
- Hbb-bs log2 nFC: 1.10
- Hbb-bs nFC: 2.15
- Hbb-bt log2 nFC: 1.09
- Hbb-bt nFC: 2.13
- Hhatl log2 nFC: 2.05
- Hhatl nFC: 4.14
- Hpgd log2 nFC: 1.63
- Hpgd nFC: 3.10
- Igfbp3 log2 nFC: 1.75
- Igfbp3 nFC: 3.37
- Igfbp6 log2 nFC: 1.68
- Igfbp6 nFC: 3.21
- Inmt log2 nFC: 1.34
- Inmt nFC: 2.54
- Itga2b log2 nFC: 1.10
- Itga2b nFC: 2.15
- Kcne2 log2 nFC: 1.32
- Kcne2 nFC: 2.50
- Klf15 log2 nFC: 1.42
- Klf15 nFC: 2.67
- Klrc1 log2 nFC: 1.38
- Klrc1 nFC: 2.61
- Krt79 log2 nFC: 1.75
- Krt79 nFC: 3.36
- Ldb3 log2 nFC: 1.52
- Ldb3 nFC: 2.86
- Lrat log2 nFC: 1.15
- Lrat nFC: 2.22
- Mb log2 nFC: 2.27
- Mb nFC: 4.81
- Mir6979 log2 nFC: 1.18
- Mir6979 nFC: 2.26
- Mmp9 log2 nFC: 1.20
- Mmp9 nFC: 2.30
- Mpp3 log2 nFC: 1.65
- Mpp3 nFC: 3.14
- Ms4a4d log2 nFC: 1.15
- Ms4a4d nFC: 2.21
- Mybpc3 log2 nFC: 2.06
- Mybpc3 nFC: 4.18
- Mybphl log2 nFC: 2.33
- Mybphl nFC: 5.04
- Myh6 log2 nFC: 2.62
- Myh6 nFC: 6.14
- Myh7 log2 nFC: 2.22
- Myh7 nFC: 4.68
- Myl4 log2 nFC: 1.94
- Myl4 nFC: 3.85
- Myl7 log2 nFC: 1.90
- Myl7 nFC: 3.73
- Mylk3 log2 nFC: 2.03
- Mylk3 nFC: 4.08
- Myom2 log2 nFC: 1.87
- Myom2 nFC: 3.67
- Ngp log2 nFC: 2.72
- Ngp nFC: 6.57
- Nhlrc1 log2 nFC: 1.34
- Nhlrc1 nFC: 2.53
- Npr3 log2 nFC: 1.53
- Npr3 nFC: 2.88
- Nr4a3 log2 nFC: 1.63
- Nr4a3 nFC: 3.09
- Nrn1 log2 nFC: 1.84
- Nrn1 nFC: 3.59
- Numb log2 nFC: 1.49
- Numb nFC: 2.80
- Pdk4 log2 nFC: 1.64
- Pdk4 nFC: 3.11
- Phf24 log2 nFC: 1.57
- Phf24 nFC: 2.97
- Pln log2 nFC: 2.30
- Pln nFC: 4.92
- Pmvk log2 nFC: 1.09
- Pmvk nFC: 2.13
- Ppbp log2 nFC: 1.09
- Ppbp nFC: 2.13
- Ppp4r4 log2 nFC: 1.26
- Ppp4r4 nFC: 2.40
- Pram1 log2 nFC: 1.64
- Pram1 nFC: 3.12
- Prf1 log2 nFC: 1.34
- Prf1 nFC: 2.53
- Prmt8 log2 nFC: 1.27
- Prmt8 nFC: 2.41
- Pwwp3b log2 nFC: 1.22
- Pwwp3b nFC: 2.33
- Rab44 log2 nFC: 1.61
- Rab44 nFC: 3.05
- Rassf10 log2 nFC: 1.19
- Rassf10 nFC: 2.28
- Rbfox3 log2 nFC: 1.26
- Rbfox3 nFC: 2.40
- Rbm24 log2 nFC: 1.20
